Measured values: patent US8324191B2, “Combined calcium, magnesium and vitamin D supplements” (Biolink Life Sciences, Inc, priority 2008, dated 2012)
Read-outs that look alike come from different tables or passages of the source.

Key:
[1] = conventional magnesium salts; Firoz and Graber 2001; cited from earlier work
[2] = 250-750 mg magnesium daily as magnesium hydroxide, 2 years; cited from earlier work
[3] = Availability of magnesium and lipoate ions from aqueous suspensions of the salt; format: physicochemical; settings: aqueous solutions, pH about 4 to about 8
From the text: Thus, its bioavailability is unexpectedly high, as compared to conventional, water-insoluble magnesium salts. Further, R-(+)-alpha-lipoic acid is a widely distributed physiological antioxidant that combines free radical scavenging properties with an ability, after intracellular reduction to dihydrolipoic acid, to regenerate the levels of other nonenzymatic and enzymatic antioxidants, including glutathione (GSH), ascorbate, α-tocopherol, catalase and GSH peroxidase. The physiological form of R-(+)-α-lipoate, the R-(+)-enantiomer, is present in all eukaryotic and prokaryotic cells.

[4] = cited from earlier work
[5] = doses of 1 g calcium citrate daily; cited from earlier work
[6] = cited from earlier work; remark: listed apart in the source
[7] = 1 gram calcium/day as the citrate, 1,471 healthy older women; cited from earlier work

## [Cl-].[Cl-].[Mg+2] [Magnesium chloride]
[1]
  Bioavailability (as fractional absorption of administered dose): 12%

## [Mg+2].[OH-].[OH-] [Magnesium hydroxide]
[1]
  Bioavailability (as fractional absorption of administered dose): 4%
[2]
  bone density: significant increase in bone density
  fractures: prevented fractures

## Magnesium R-(+)-alpha-lipoate
[3]
  availability of magnesium and R-(+)-alpha-lipoate ions from suspensions: available

## vitamin D
[4]; 400 IU per day
  fracture benefit: failed to demonstrate any fracture benefit
[4]; 700 to 800 IU per day
  reduction of risk of any non-vertebral fracture: 23%
  reduction of risk of hip fracture: 26%

## O=C([O-])CC(O)(CC(=O)[O-])C(=O)[O-].O=C([O-])CC(O)(CC(=O)[O-])C(=O)[O-].[Ca+2].[Ca+2].[Ca+2] [calcium citrate]
[5]
  risk for myocardial infarction, stroke and death: increase risk

## O=C(O)CCCCC1CCSS1 (stereo not drawn) [RS-Alpha-lipoic acid, RS-alpha-lipoic acid]
[6]; closed and sealed amber container at room temperature
  storage life: a year or more

## [Ca] [calcium]
[7]
  effect on bone density: beneficial effect on bone density

## CC(O)C(=O)[O-].CC(O)C(=O)[O-].[Mg+2] (stereo not drawn) [Magnesium lactate]
[1]
  Bioavailability (as fractional absorption of administered dose): 12%

## Magnesium citrate
[1]
  Bioavailability (as fractional absorption of administered dose): 12%

## O=C(O)CCCCC1CCSS1 (stereo not drawn) [R-(+)-alpha-lipoic acid]
[6]; closed and sealed amber container at refrigerated temperatures
  storage life: within a few months

## [O]=[Mg] [Magnesium oxide]
[1]
  Bioavailability (as fractional absorption of administered dose): 4%
